Measurements as given in ChEMBL document CHEMBL1146970, “Potent blockers of the monocarboxylate transporter MCT1: novel immunomodulatory compounds” (Bioorg Med Chem Lett, 2006).
Values after ≈ are worked out from the molar mass of the structure shown.

Experiment: not given
Conditions: buffer
`CC(C)Cn1c(=O)n(C)c(=O)c2c(SCCCO)n(Cc3cccc4ccccc34)cc21` showed a solubility of 80 µg/mL (≈ 177 µM).

Experiment: physchem
Conditions: aqueous
`CC(C)Cn1c(=O)n(C)c(=O)c2c(C(=O)N3CC[C@@H](O)C3)c(Cc3ccnc4ccccc34)sc21` showed a solubility of 520 µg/mL (≈ 1060 µM).
With `CC(C)Cc1nn(C)c(=O)c2c(SCCCO)n(Cc3cccc4ccccc34)cc12` the solubility was < 1 µg/mL.

Experiment: physchem
Conditions: octanol/water
For `CC(C)Cn1c(=O)n(C)c(=O)c2c(C(=O)N3CC[C@@H](O)C3)c(Cc3cccc4ncccc34)sc21`, the logD was 2.
Work on `CC(C)Cn1c(=O)n(C)c(=O)c2c(SCCCO)c(Cc3ccccc3C(F)(F)F)sc21` yielded a logD of 4.1.
Work on `CC(C)Cn1c(=O)n(C)c(=O)c2c(C(=O)N3CC[C@@H](O)C3)c(Cc3c[nH]c4ncccc34)sc21` yielded a logD of 1.7.
`Cc1nc(Cl)c(Cl)n1Cc1sc2c(c1C(=O)N1CC[C@@H](O)C1)c(=O)n(C)c(=O)n2CC(C)C` showed a logD of 1.6.
In the case of `CC(C)Cn1c(=O)n(C)c(=O)c2c(SC3CCC3)c(Cc3ccccc3C(F)(F)F)sc21`, the logD is reported as > 3.5.
In the case of `CC(C)Cn1c(=O)n(C)c(=O)c2c(C(=O)N3CC[C@@H](O)C3)c(Cc3ccnc4ccccc34)sc21`, the logD is reported as 1.7.
For `CC(C)Cn1c(=O)n(C)c(=O)c2c(C(=O)N3CC[C@@H](O)C3)c(Cc3c[nH]c4ccccc34)sc21`, the logD was 2.4.
Compound `CC(C)Cn1c(=O)n(C)c(=O)c2c(C(=O)N3CC[C@@H](O)C3)c(Cc3cncc4ccccc34)sc21` has a logD of 1.7.
Compound `CC(C)Cn1c(=O)n(C)c(=O)c2c(C(=O)N3CC[C@@H](O)C3)c(Cc3ccccc3C(F)(F)F)sc21` has a logD of 2.7.
`CC(C)Cc1nn(C)c(=O)c2c(SCCCO)n(Cc3cccc4ccccc34)cc12` showed a logD of 4.8.
In the case of `CC(C)Cn1c(=O)n(C)c(=O)c2c(C(=O)N3CCCC3)c(Cc3ccccc3C(F)(F)F)sc21`, the logD is reported as 3.8.
`CNc1nc2ccccc2n1Cc1sc2c(c1C(=O)N1CC[C@@H](O)C1)c(=O)n(C)c(=O)n2CC(C)C` gave a logD of 1.6.
With `CC(C)Cn1c(=O)n(C)c(=O)c2c(C(=O)N3CC(C)(O)C3)c(Cc3ccccc3C(F)(F)F)sc21` the logD was 3.2.
For `CC(C)Cn1c(=O)n(C)c(=O)c2c(SCCCO)n(Cc3cccc4ccccc34)cc21`, the logD was 4.4.
Work on `CC(C)Cn1c(=O)n(C)c(=O)c2c(S[C@@H]3CCC[C@H]3O)c(Cc3ccccc3C(F)(F)F)sc21` (racemic) yielded a logD of 4.2.
For `CC(C)Cn1c(=O)n(C)c(=O)c2c(SCC(O)CO)c(Cc3ccccc3C(F)(F)F)sc21` (racemic), the logD was > 4.5.
Compound `CC(C)Cn1c(=O)n(C)c(=O)c2c(S[C@@H]3CC[C@H](O)C3)c(Cc3ccccc3C(F)(F)F)sc21` (racemic) has a logD of 4.4.
Compound `CC(C)Cn1c(=O)n(C)c(=O)c2c(S(=O)(=O)N3CC[C@@H](O)C3)c(Cc3ccccc3C(F)(F)F)sc21` (racemic) has a logD of 3.3.
